By logD is commonly meant lipophilicity at a set pH, counting ionised and neutral species. High values mean higher lipophilicity, low ones lower lipophilicity.

Results on 4 molecules are retold here after article PMC8653149, “Cyclic Analogs of Desferrioxamine E Siderophore for ^68Ga Nuclear Imaging: Coordination Chemistry and Biological Activity in Staphylococcus aureus” (Inorganic Chemistry, 2021).

The conditions of data set [1]: cited from earlier work.
For data set [2] the following is noted: cited from earlier work. This is another data set of the same source.
A short description of data set [3]: Distribution coefficient (logD) of ^68Ga-labeled ligands between octanol and PBS.
Data set [4] in a line: Water solubility of the ligands. Format: physicochemical. Particulars: H2O and H2O/DMSO 70/30 w/w mixture; concentrations used in assays. The protocol:
Elaborated solution thermodynamic studies combining several methods were performed in order to investigate those properties. Five FOXE analogs were water soluble in at least 1 × 10^–3 M concentration. […] Major results of physicochemical analysis for analogs characterized by most desirable properties are summarized below.

Details of data set [5]: method as in PMID 11673947. The settings on record: cited from earlier work.
A short description of data set [6]: Ga(III) complex stability constants by Fe(III)–Ga(III) metal–metal competition, potentiometric and UV–vis pH-metric titrations. Format: physicochemical. The source says:
The next step was to determine the coordination specificity of investigated ligands toward Ga(III) ions. This is a somewhat challenging task because it requires indirect methods since the investigated complexes started to form in a very acidic environment, where potentiometric measurements were not accurate owing to the error of the glass electrode,[55],[56] and gallium is spectroscopically silent in UV–vis. To bypass this inconvenience, we implemented metal–metal competition assays. After addition of a significant molar excess of Ga(III), the LMCT band of Fe(III)-FOXE analog complexes was almost fully silenced as Ga(III) replaced Fe(III) in its complexes (Figure S5). By implementing those spectral changes, we were able to calculate the stability constants of the Ga(III)-FOXE analog species present below or around pH 2, [GaHL]^+ (Table S8). Stability constants for the [GaL] species, present above pH 2, could be determined by potentiometric titrations for Ga(III)-FOX 2-2, 2-3, 2-4, and 3-5, with logβ of [GaHL]^+ fixed in the calculations (Table S8). For Ga(III)-FOX 2-5, we could not observe any deprotonation step using this methodology. To confirm this behavior, UV–vis titration of the Ga(III)-FOX 2-5 analog complex was performed in the 200–300 nm spectral range (Figure S6) corresponding to the hydroxamate groups’ protonation state.[57]−[59] […] Above pH 4, there were no significant changes in maxima localization or absorbance intensity. Above pH 9, absorbance started to rise again, which indicated complex dissociation. […] Overall, the data indicated a decreased stability of [GaL] species when decreasing or increasing the ring size of Ga(III)-FOX 2-5, as reflected by pKNHOH (Table S8). Implementing this full coordination specification of Ga(III)-FOX complexes, we were able to calculate speciation plots which are presented in Figure 1 for the most efficient analogs FOX 2-4 and FOX 2-5, given here as examples, and in Figure S7 for others.
Proposed biomimetic analogs of cyclic siderophore FOXE bind Fe(III) ions starting from pH around 0, and the complexation is essentially complete far below or around pH of 2. Therefore, the stability constants of the first species formed in solution were determined from the spectrophotometric pH-dependent batch titrations carried out in the pH range of around 0.1–2 (Figure S3), by following the changes in the intense LMCT band of the metal complex. These values were further used as constant values in spectrophotometric or potentiometric titrations carried out in the pH range from 2 to 11 (Figure S3) to get the overall stability constants, logβFeL (Table S5). Since Ga(III)-FOX complexes present similar coordination properties, the first species start to form below pH 2 as well. However, in this case, we have used indirect methods to determine stability constants for Ga(III)-FOXE analogs and the Ga(III) complex with native FOXE, as Ga(III) complexes are spectroscopically silent in the UV–vis region. Metal–metal competition titrations were carried out at pH 1.6 for FOX 2-5 and FOX 2-4 and at pH 2 for the rest of the analogs and the native compound. The intense LMCT band of the Fe(III) complex was silenced after addition of a fixed volume of Ga(III) ions (Figure S5).
Potentiometric titrations were performed using an automatic titrator system Titrando 905 (Metrohm) equipped with a 800 Dosino dosing unit and a microburet with a volume of 2 mL. A combined glass electrode was calibrated each day for hydrogen ion concentration by 0.1 M HClO4 with CO2-free 0.1 M NaOH solutions. A stream of high purity grade argon, presaturated with water vapor, passed over the surface of the solution cell, filled with 3 mL of the studied solution. For each system, a minimum of four independent titrations was performed. […]

Details of data set [7]: method as in Ref 3 (supplement). Particulars: ref Ref 3 (supplement); cited from earlier work.

“Also recorded” adds a separate entry of the source. Like-named read-outs stand apart in the source and are kept apart here. Marks after values point to notes of the source that are not given here.

As for `CC(=O)N(O)CCCCCNC(=O)CCC(=O)N(O)CCCCCNC(=O)CCC(=O)N(O)CCCCCN` [DFOB], in data set [1], the “logβGa(III)L” value was 27.56 ^g and the “pGa(III)” value is on record as 21.6 ^g. In data set [2], the “logβFe(III)L” value is given as 31.10 ^g and the “pFe(III)” value is reported as 26.3 ^f.
For `O=C1CCCCCCN(O)C(=O)CCNC(=O)CCCCCCN(O)C(=O)CCNC(=O)CCCCCCN(O)C(=O)CCN1` [FOX 2-6], the logD at 20 min in data set [3] was -0.58. In data set [4], the “solubility” value is “not water soluble in concentrations used during our assays; also recorded: not soluble in H2O nor in a H2O/DMSO 70/30 w/w mixture”.
Regarding `O=C1CCC(=O)N(O)CCCCCNC(=O)CCC(=O)N(O)CCCCCNC(=O)CCC(=O)N(O)CCCCCN1` [FOXE, desferrioxamine E], in data set [5], the “E1/2 vs NHE” value was “–477 ^d mv” and the “logβFe(II)” value is reported as 12.1 ^d. Further, the “logβ[GaL]” value in data set [6] (UV-Vis (metal–metal competition) titrations, [L] = 1·10^-4 M, M:L 1:1, T = 25°C, I = 0.1 M NaClO4) is given as 29.79 (1). Besides, in data set [6] (calculated, pH 7.4), the “pGa(III)” value is given as 25.2. Besides, the “logβGa(III)L” value in data set [6] (potentiometric [L] = 1 × 10^–3 M and UV–vis 5 × 10^–5 M, M:L 1:1, T = 25 °C, I = 0.1 M NaClO4) is on record as 29.79(1). Besides, in data set [7], the “protonation constant logβ, H2L + H+ ↔ H3L” value is recorded as 27.94; the “protonation constant logβ, HL + H+ ↔ H2L” value is recorded as 19.31; the “protonation constant logβ, L + H+ ↔ HL” value was 9.89. The “pFe(III)” value in data set [2] is on record as 27.3 ^c.
On to “transferrin: strong iron-binding ligand present in living organisms, literature comparator for pM”, for which the “pGa(III)” value in data set [1] is 20.3 ^i. Moreover, the “pFe(III)” value in data set [2] is 25.6 ^h.
